Experimental data taken from article PMC4780679 (Inorganic chemistry, 2015).

Target: HydG (So HydG, WT HydG) (Shewanella oneidensis, UniProt Q8EAH9)
Assay: X-band CW EPR of the [4Fe-4S]RS cluster
Assay type: binding
Conditions: pH 7.5, 10 K; [4Fe-4S]RS cluster site

C[S+](CC[C@H](N)C(=O)O)C[C@H]1O[C@@H](n2cnc3c(N)ncnc32)[C@H](O)[C@@H]1O (stereo partly drawn) [SAM, S-adenosyl-L-methionine]
X-band CW EPR of the [4Fe-4S]RS cluster: interaction between the HydG [4Fe–4S]RS cluster and the substrates, Tyr or SAM
